Experiments:
Details in all cases: 72 h
Calu-3 [1] = assay: cell viability relative to DMSO; higher = less toxic
Caco-2 [2] = assay: as above
HepG2 [3] = assay: as above
Vero E6 [4] = assay: as above
U2OS [5] = assay: as above
Calu-3 [6] = assay: relative viability EC50 (midpoint between 100% and the lowest measured viability); higher = less toxic
Caco-2 [7] = assay: as above
HepG2 [8] = assay: as above
Vero E6 [9] = assay: as above
U2OS [10] = assay: as above
Calu-3 [11] = assay: drug sensitivity score (DSS) for viability; higher = more toxic; extreme values may be limits of the assay
Caco-2 [12] = assay: as above
HepG2 [13] = assay: as above
Vero E6 [14] = assay: as above
U2OS [15] = assay: as above

Structure (SMILES)	cell viability (Calu-3 [1]; 1 nM) [%]	cell viability (Calu-3 [1]; 10 nM) [%]	cell viability (Calu-3 [1]; 100 nM) [%]	cell viability (Calu-3 [1]; 1000 nM) [%]	cell viability (Calu-3 [1]; 10000 nM) [%]	cell viability (Caco-2 [2]; 1 nM) [%]	cell viability (Caco-2 [2]; 10 nM) [%]	cell viability (Caco-2 [2]; 100 nM) [%]	cell viability (Caco-2 [2]; 1000 nM) [%]	cell viability (Caco-2 [2]; 10000 nM) [%]	cell viability (HepG2 [3]; 1 nM) [%]	cell viability (HepG2 [3]; 10 nM) [%]	cell viability (HepG2 [3]; 100 nM) [%]	cell viability (HepG2 [3]; 1000 nM) [%]	cell viability (HepG2 [3]; 10000 nM) [%]	cell viability (Vero E6 [4]; 1 nM) [%]	cell viability (Vero E6 [4]; 10 nM) [%]	cell viability (Vero E6 [4]; 100 nM) [%]	cell viability (Vero E6 [4]; 1000 nM) [%]	cell viability (Vero E6 [4]; 10000 nM) [%]	cell viability (U2OS [5]; 1 nM) [%]	cell viability (U2OS [5]; 10 nM) [%]	cell viability (U2OS [5]; 100 nM) [%]	cell viability (U2OS [5]; 1000 nM) [%]	cell viability (U2OS [5]; 10000 nM) [%]	relative viability EC50 (Calu-3 [6]) [µM]	relative viability EC50 (Caco-2 [7]) [µM]	relative viability EC50 (HepG2 [8]) [µM]	relative viability EC50 (Vero E6 [9]) [µM]	relative viability EC50 (U2OS [10]) [µM]	drug sensitivity score (Calu-3 [11])	drug sensitivity score (Caco-2 [12])	drug sensitivity score (HepG2 [13])	drug sensitivity score (Vero E6 [14])	drug sensitivity score (U2OS [15])
CCCCC(=O)O[C@]1(C(=O)CO)CC[C@H]2[C@@H]3CCC4=CC(=O)CC[C@]4(C)[C@H]3[C@@H](O)C[C@@]21C [hydrocortisone-valerate]	87.3	97.1	86.5	95.9	103	103	99	88	109	99.3	103	97	101	96.5	103	107	105	101	98.5	101	95.5	97.1	92.5	100	93.2	> 10	> 10	> 10	> 10	> 10	0	0	0	0	0
CCN(CC)CCCC(C)Nc1nc(C)cc(Nc2ccc3nc(C)cc(N)c3c2)n1 (stereo not given)	104	92	95.4	92.5	110	102	97.2	99.5	95	105	96	99.9	100	95.6	79.9	97.7	102	104	97.9	97.6	106	97.6	100	97.8	102	> 10	> 10	> 10	> 10	> 10	0	0	1.2	0	0
C[C@@H]1CC[C@@]2(OC1)O[C@H]1C[C@H]3[C@@H]4CC=C5C[C@@H](O)CC[C@]5(C)[C@H]4CC[C@]3(C)[C@H]1[C@@H]2C [diosgenin]	96.8	91.3	84.2	95.4	95.4	105	97.9	101	94.5	101	101	105	98.8	102	106	102	107	102	103	98.1	95.9	99.1	101	99.9	98.1	> 10	> 10	> 10	> 10	> 10	0	0	0	0	0
